Here are results for nine molecules from ChEMBL document CHEMBL3739426, “Synthesis and biological evaluation of novel 2-isoxazoline fused cyclopentane derivatives as potential antimicrobial and anticancer agents” (Medchemcomm, 2015).

The MIC is the lowest concentration that inhibits growth of the organism. Low readings indicate greater potency, high ones weaker potency. For orientation: IC50 means the midpoint of a concentration-inhibition curve. Low readings indicate greater potency, high ones weaker potency.

The structures appear in SMILES notation. ≈ marks a conversion by molar mass, not a printed value. Calls of active or inactive are those of the source. The rule behind the calls is not given here. Bounds are passed on as bounds.

One assay relates to Bacillus subtilis. The assay is described as follows: Antimicrobial activity against Bacillus subtilis by cup plate diffusion method. The assay is classed as functional.
Assay [1] has as its system MCF7. The assay is described as follows: Induction of apoptosis in human MCF7 cells assessed live cells at 10 ug/ml after 48 hrs using annexin V/propidium iodide staining by muse cell analyzer analysis (reference value: 81.07%). The assay is classed as functional.
The test system of assay [2] is MCF7. The assay is described as follows: Cell cycle arrest in human MCF7 cells assessed as accumulation at G2/M phase at 5 ug/ml after 48 hrs using propidium iodide staining by flow cytometry analysis (reference value: 25.8%). It counts as functional. For orientation: In flow cytometry, cells or beads pass a laser one at a time.
Assay [3] has as its system MCF7. The assay is described as follows: Induction of apoptosis in human MCF7 cells assessed live cells at 5 ug/ml after 48 hrs using annexin V/propidium iodide staining by muse cell analyzer analysis (reference value: 81.07%). The assay is classed as functional.
Assay [4] is described as follows: Cytotoxicity against human PC3 cells after 48 hrs by MTT assay. The assay is classed as functional, cell-based. As to conditions: PC-3, 48 h. For orientation: Formazan colour is commonly taken as a measure of viable cells.
Another assay relates to HT-29. The assay is described as follows: Cytotoxicity against human HT-29 cells after 48 hrs by MTT assay. It counts as functional, cell-based. As to conditions: HT-29, 48 h.
A further assay relates to Priestia megaterium. The assay is described as follows: Antimicrobial activity against Bacillus megaterium by cup plate diffusion method. It counts as functional.
The test system of assay [5] is MCF7. The assay is described as follows: Induction of apoptosis in human MCF7 cells assessed late apoptotic cells at 10 ug/ml after 48 hrs using annexin V/propidium iodide staining by muse cell analyzer analysis (reference value: 11.89%). It counts as functional.
In assay [6] the test system is MCF7. The assay is described as follows: Cell cycle arrest in human MCF7 cells assessed as accumulation at G0/G1 phase at 5 ug/ml after 48 hrs using propidium iodide staining by flow cytometry analysis (reference value: 47.3%). The assay is classed as functional.
The subject of assay [7] is MCF7. The assay is described as follows: Induction of apoptosis in human MCF7 cells assessed as formation of intact nuclei at 5 ug/ml after 48 hrs using acridine orange and ethidium bromide staining by light microscopic analysis. It counts as functional, cell-based.
Assay [8] relates to MCF7. The assay is described as follows: Induction of apoptosis in human MCF7 cells assessed as decrease of mitochondrial membrane potential after 12 hrs using JC-1 dye by fluorescence microscopic analysis. It counts as functional, cell-based.
Assay [9] has as its system MCF7. The assay is described as follows: Induction of apoptosis in human MCF7 cells assessed early apoptotic cells at 10 ug/ml after 48 hrs using annexin V/propidium iodide staining by muse cell analyzer analysis (reference value: 6%). It counts as functional.
The test system of assay [10] is MCF7. The assay is described as follows: Induction of apoptosis in human MCF7 cells assessed early apoptotic cells at 5 ug/ml after 48 hrs using annexin V/propidium iodide staining by muse cell analyzer analysis (reference value: 6%). It counts as functional.
Assay [11] relates to MCF7. The assay is described as follows: Induction of apoptosis in human MCF7 cells assessed late apoptotic cells at 5 ug/ml after 48 hrs using annexin V/propidium iodide staining by muse cell analyzer analysis (reference value: 11.89%). The assay is classed as functional.
The subject of assay [12] is MCF7. The assay is described as follows: Induction of apoptosis in human MCF7 cells assessed dead cells at 5 ug/ml after 48 hrs using annexin V/propidium iodide staining by muse cell analyzer analysis (reference value: 1.04%). It counts as functional.
For another assay, the system named is A549. The assay is described as follows: Cytotoxicity against human A549 cells after 48 hrs by MTT assay. It counts as functional, cell-based. The settings on record: A549, 48 h.
Assay [13] relates to MCF7. The assay is described as follows: Cell cycle arrest in human MCF7 cells assessed as accumulation at G2/M phase at 10 ug/ml after 48 hrs using propidium iodide staining by flow cytometry analysis (reference value: 25.8%). It counts as functional.
The subject of assay [14] is MCF7. The assay is described as follows: Induction of apoptosis in human MCF7 cells assessed as formation of cell membrane blebbing at 10 ug/ml after 48 hrs using acridine orange and ethidium bromide staining by light microscopic analysis. It counts as functional, cell-based.
For assay [15], the system named is MCF7. The assay is described as follows: Cell cycle arrest in human MCF7 cells assessed as accumulation at G0/G1 phase at 10 ug/ml after 48 hrs using propidium iodide staining by flow cytometry analysis (reference value: 47.3%). The assay is classed as functional.
The test system of assay [16] is MCF7. The assay is described as follows: Induction of apoptosis in human MCF7 cells assessed as formation of chromatin condensation at 10 ug/ml after 48 hrs using acridine orange and ethidium bromide staining by light microscopic analysis. It counts as functional, cell-based.
The subject of another assay is Pseudomonas sp. The assay is described as follows: Antimicrobial activity against Pseudomonas sp. by cup plate diffusion method. It counts as functional.
The test system of assay [17] is MCF7. The assay is described as follows: Induction of apoptosis in human MCF7 cells assessed as formation of extremely condensed chromatin at 5 ug/ml after 48 hrs using acridine orange and ethidium bromide staining by light microscopic analysis. It counts as functional, cell-based.
Assay [18] deals with MCF7. The assay is described as follows: Induction of apoptosis in human MCF7 cells assessed dead cells at 10 ug/ml after 48 hrs using annexin V/propidium iodide staining by muse cell analyzer analysis (reference value: 1.04%). The assay is classed as functional.
The test system of assay [19] is MCF7. The assay is described as follows: Cell cycle arrest in human MCF7 cells assessed as accumulation at S phase at 5 ug/ml after 48 hrs using propidium iodide staining by flow cytometry analysis (reference value: 12.7%). The assay is classed as functional.
Assay [20] relates to MCF7. The assay is described as follows: Cell cycle arrest in human MCF7 cells assessed as accumulation at S phase at 10 ug/ml after 48 hrs using propidium iodide staining by flow cytometry analysis (reference value: 12.7%). The assay is classed as functional.
Another assay concerns Escherichia coli. The assay is described as follows: Antimicrobial activity against Escherichia coli by cup plate diffusion method. The assay is classed as functional.
Assay [21] deals with MCF7. The assay is described as follows: Induction of apoptosis in human MCF7 cells assessed as formation of nuclear fragmentation at 10 ug/ml after 48 hrs using acridine orange and ethidium bromide staining by light microscopic analysis. It counts as functional, cell-based.
Assay [22] concerns MCF7. The assay is described as follows: Cytotoxicity against human MCF7 cells after 48 hrs by MTT assay. It counts as functional, cell-based. The settings on record: MCF7, 48 h.
A further assay has as its system HeLa. The assay is described as follows: Cytotoxicity against human HeLa cells after 48 hrs by MTT assay. The assay is classed as functional, cell-based.
The next assay relates to Candida albicans. The assay is described as follows: Antimicrobial activity against Candida albicans by cup plate diffusion method. It counts as functional.

On to `OC[C@@H]1C[C@H](CO)[C@@H]2C(c3ccc4ccccc4c3)=NO[C@H]12`, for which the MIC against Bacillus subtilis is 26 µg/mL (≈ 87.4 µM); in the assay on Priestia megaterium, 26 µg/mL (≈ 87.4 µM); against Pseudomonas sp. it was more than 100 µg/mL; against Escherichia coli, more than 100 µg/mL; with Candida albicans, more than 100 µg/mL. Moreover, the Activity in the assay on MCF7 [1] was 32.21%; with MCF7 [2], 24.8%; with MCF7 [3], 55.08%; with MCF7 [5] it was 18.85%; in the assay on MCF7 [6] it was 44.7%; in the assay on MCF7 [8], “Dose-dependent effect”. Also, the Activity in the assay on MCF7 [9] is on record as 48.32%; with MCF7 [10], 24.94%; in the assay with MCF7 [11], 15.91%; with MCF7 [12], 4.06%; in the assay with MCF7 [13] it was 22.6%; with MCF7 [15], 35.7%. Moreover, the Activity in the assay on MCF7 [18] is listed as 0.61%; in the assay on MCF7 [19] it was 14.9%; in the assay with MCF7 [20], 27.5%. In addition, the IC50 was 48.4 µg/mL (≈ 163 µM) in [4]; 14.3 µg/mL (≈ 48.1 µM) in the assay on HT-29; more than 50 µg/mL in the assay on A549; 11.5 µg/mL (≈ 38.7 µM) in the assay on MCF7 [22]; 24.5 µg/mL (≈ 82.4 µM) with HeLa. Also, the result in the assay with MCF7 [7], in the assay with MCF7 [14], in the assay with MCF7 [16], with MCF7 [17] and in the assay with MCF7 [21] was Active.
With `O=C(O)[C@H]1C[C@@H](C(=O)O)[C@H]2ON=C(c3ccccc3Cl)[C@H]21`, the MIC with Bacillus subtilis, in the assay on Priestia megaterium, against Pseudomonas sp., in the assay on Escherichia coli and with Candida albicans was more than 100 µg/mL each time. In addition, the IC50 (in assay [4]; in the assay with HT-29; in the assay on A549; with MCF7 [22]; in the assay with HeLa) was more than 50 µg/mL each time.
Take `COC(=O)[C@H]1C[C@@H](C(=O)OC)[C@H]2ON=C(c3ccc(OC)cc3)[C@H]21`: the MIC in the assay on Bacillus subtilis, against Priestia megaterium, against Pseudomonas sp., in the assay on Escherichia coli and against Candida albicans was more than 100 µg/mL throughout. Further, the IC50 in assay [4] was more than 50 µg/mL; in the assay with HT-29, 28.9 µg/mL (≈ 86.7 µM); with A549, more than 50 µg/mL; with MCF7 [22] it was more than 50 µg/mL; in the assay with HeLa, more than 50 µg/mL.
Regarding `O=C(O)[C@H]1C[C@@H](C(=O)O)[C@H]2ON=C(c3ccc(Br)cc3)[C@H]21`, the MIC in the assay with Bacillus subtilis came to 10.5 µg/mL (≈ 29.6 µM); against Priestia megaterium, 10.5 µg/mL (≈ 29.6 µM); with Pseudomonas sp., 22 µg/mL (≈ 62.1 µM); against Escherichia coli, 2.2 µg/mL (≈ 6.21 µM); against Candida albicans it was 8.7 µg/mL (≈ 24.6 µM). Also, the IC50 was more than 50 µg/mL in assay [4]; more than 50 µg/mL with HT-29; more than 50 µg/mL in the assay on A549; more than 50 µg/mL with MCF7 [22]; 45.6 µg/mL (≈ 129 µM) in the assay on HeLa.
Regarding `COC(=O)[C@H]1C[C@@H](C(=O)OC)[C@H]2ON=C(c3ccccc3Cl)[C@H]21`, the MIC against Bacillus subtilis, in the assay on Priestia megaterium, against Pseudomonas sp., against Escherichia coli and against Candida albicans was more than 100 µg/mL throughout. In addition, the IC50 (in assay [4]; in the assay on HT-29; with A549; in the assay on MCF7 [22]; with HeLa) was more than 50 µg/mL in each case.
Take `OC[C@@H]1C[C@H](CO)[C@@H]2C(c3ccc(F)cc3)=NO[C@H]12`: the MIC against Bacillus subtilis, in the assay with Priestia megaterium, with Pseudomonas sp., in the assay with Escherichia coli and in the assay on Candida albicans was more than 100 µg/mL in each case. In addition, the IC50 was more than 50 µg/mL in [4]; 17.8 µg/mL (≈ 67.1 µM) in the assay with HT-29; 31.1 µg/mL (≈ 117 µM) in the assay on A549; more than 50 µg/mL in the assay on MCF7 [22]; more than 50 µg/mL in the assay with HeLa.
`COC(=O)[C@H]1C[C@@H](C(=O)OC)[C@H]2ON=C(c3ccc(Cl)cc3)[C@H]21`: the MIC in the assay on Bacillus subtilis, in the assay on Priestia megaterium, with Pseudomonas sp., against Escherichia coli and in the assay on Candida albicans was more than 100 µg/mL each time. Further, the IC50 (in assay [4]; in the assay on HT-29; in the assay with A549; in the assay on MCF7 [22]; with HeLa) was more than 50 µg/mL in each case.
On to `OC[C@@H]1C[C@H](CO)[C@@H]2C(c3ccc(Cl)cc3)=NO[C@H]12`, for which the MIC against Bacillus subtilis, in the assay with Priestia megaterium, in the assay with Pseudomonas sp., with Escherichia coli and against Candida albicans was more than 100 µg/mL in each case. Moreover, the IC50 in assay [4] was more than 50 µg/mL; with HT-29, 22.9 µg/mL (≈ 81.3 µM); in the assay on A549 it was more than 50 µg/mL; in the assay on MCF7 [22], 14.7 µg/mL (≈ 52.2 µM); in the assay on HeLa, more than 50 µg/mL.
Turning to `COC(=O)[C@H]1C[C@@H](C(=O)OC)[C@H]2ON=C(c3ccc(C)cc3)[C@H]21`, the MIC against Bacillus subtilis, in the assay with Priestia megaterium, in the assay on Pseudomonas sp., against Escherichia coli and against Candida albicans was more than 100 µg/mL each time. The IC50 (in [4]; with HT-29; with A549; in the assay on MCF7 [22]; in the assay on HeLa) was more than 50 µg/mL throughout.
